Earlier results as cited in US20240189234A1, “SILICON PARTICLES FOR DRUG DELIVERY” (NACAMED AS, priority 2021, published 2024).

Tests used:
[1] = oral
[2] = calculated log P values from Foye's Principles of Medicinal Chemistry

Row | Compound | absolute bioavailability [1] | log P [2]
1 | C[C@@H]1[C@H](O)[C@@H](C)/C=C/C=C/C=C/C=C/C=C/C=C/C=C/[C@H](O[C@@H]2O[C@H](C)[C@@H](O)[C@H](N)[C@@H]2O)C[C@@H]2O[C@](O)(C[C@@H](O)C[C@@H](O)[C@H](O)CC[C@@H](O)C[C@@H](O)CC(=O)O[C@H]1C)C[C@H](O)[C@H]2C(=O)O [amphotericin B] | very low | 
2 | CC[C@H]1OC(=O)[C@H](C)[C@@H](O[C@H]2C[C@@](C)(OC)[C@@H](O)[C@H](C)O2)[C@H](C)[C@@H](O[C@@H]2O[C@H](C)C[C@H](N(C)C)[C@H]2O)[C@](C)(O)C[C@@H](C)CN(C)[C@H](C)[C@@H](O)[C@]1(C)O [azithromycin] | 40% | 
3 | CCOc1nc2cccc(C(=O)O)c2n1Cc1ccc(-c2ccccc2-c2nnn[nH]2)cc1 [candesartan] | 40% | 
4 | COc1ccc([C@@H]2Sc3ccccc3N(CCN(C)C)C(=O)[C@@H]2OC(C)=O)cc1 [diltiazem] | 40% | 4.73
5 | CCOC(=O)[C@H](CCc1ccccc1)N[C@@H](C)C(=O)N1CCC[C@H]1C(=O)O [enalapril] | 60% | 3.25
6 | CC1(C)S[C@@H]2[C@H](NC(=O)COc3ccccc3)C(=O)N2[C@H]1C(=O)O [phenoxymethylpenicillin] | 50% | 
7 | CC(C)NCC(O)COc1cccc2ccccc12 (stereo not drawn) [propranolol] | 26% | 
8 | CC(=O)OCCN1CCN(CCCN2c3ccccc3Sc3ccc(Cl)cc32)CC1 [thiopropazate] |  | 4.76
9 | CSc1ccc2c(c1)N(CCC1CCCCN1C)c1ccccc1S2 (stereo not drawn) [thioridazine] |  | 5.90
10 | Cc1ccsc1C(=CCCN1CCC[C@@H](C(=O)O)C1)c1sccc1C [tiagabine] |  | 4.03
11 | O=C(O)COc1ccc(C(=O)c2cccs2)c(Cl)c1Cl [ticrynfen] |  | 3.05
12 | Cc1ccc(O)c([C@H](CCN(C(C)C)C(C)C)c2ccccc2)c1 [tolterodine] |  | 5.23
13 | CN1CCN(CCCN2c3ccccc3Sc3ccc(C(F)(F)F)cc32)CC1 [trifluoperazine] |  | 4.62
14 | CN(C)CCCN1c2ccccc2Sc2ccc(C(F)(F)F)cc21 [triflupromazine] |  | 5.16
15 | CC(=O)CC(c1ccccc1)c1c(O)c2ccccc2oc1=O (stereo not drawn) [warfarin] |  | 3.13
16 | iodoquinol |  | 4.10

Now from value to compound:

Row | absolute bioavailability [1] | log P [2] | Compound
17 |  | 5.04 | CC(CN(C)C)CN1c2ccccc2Sc2ccccc21 (stereo not drawn) [trimeprazine]
18 |  | 4.71 | CC(CN(C)C)CN1c2ccccc2CCc2ccccc21 (stereo not drawn) [trimipramine]
19 |  | 3.25 | Cc1ccc(/C(=C\CN2CCCC2)c2ccccn2)cc1 [triprolidine]
20 |  | 3.46 | CO[C@H]1C[C@H](O[C@H]2[C@H](C)[C@@H](O[C@@H]3O[C@H](C)C[C@H](N(C)C)[C@H]3OC(C)=O)[C@@H](C)C[C@@]3(CO3)C(=O)[C@H](C)[C@@H](OC(C)=O)[C@@H](C)[C@@H](C)OC(=O)[C@@H]2C)O[C@@H](C)[C@@H]1OC(C)=O [troleandomycin]
21 | 25% |  | CCCCC(=O)N(Cc1ccc(-c2ccccc2-c2nnn[nH]2)cc1)[C@H](C(=O)O)C(C)C [valsartan]
22 |  | 5.92 | CC[C@]1(O)C[C@@H]2CN(CCc3c([nH]c4ccccc34)[C@@](C(=O)OC)(c3cc4c(cc3OC)N(C)[C@H]3[C@@](O)(C(=O)OC)[C@H](OC(C)=O)[C@]5(CC)C=CCN6CC[C@]43[C@@H]65)C2)C1 [vinblastine]
23 |  | 5.75 | CC[C@]1(O)C[C@H]2CN(CCc3c([nH]c4ccccc34)[C@@](C(=O)OC)(c3cc4c(cc3OC)N(C=O)[C@H]3[C@@](O)(C(=O)OC)[C@H](OC(C)=O)[C@]5(CC)C=CCN6CC[C@]43[C@@H]65)C2)C1 [vincristine]
24 |  | 4.94 | CC[C@]1(O)C[C@@H]2CN(CCc3c([nH]c4ccccc34)[C@@](C(=O)OC)(c3cc4c(cc3OC)N(C)[C@H]3[C@@](O)(C(N)=O)[C@H](O)[C@]5(CC)C=CCN6CC[C@]43[C@@H]65)C2)C1 [vindesine]
25 |  | 3.07 | CN(C)C/C=C(/c1ccc(Br)cc1)c1cccnc1 [zimeldine]
